Laboratory results published in patent US6737383B1, “Herbicidal oxadiazolidines” (priority 1999, dated 2004).

How the values were obtained:
pigweed = experiment: Test B pre/postemergence pigweed; assay type: in vivo, Amaranthus retroflexus
Outline: (§1)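 Test chemicals in a non-phytotoxic solvent mixture with surfactant were sprayed preemergence onto planted seeds and postemergence onto plants 2 to 18 cm tall (1- to 4-leaf stage). After twelve to sixteen days in a greenhouse, injury was visually rated against untreated controls from 0 (no effect) to 10 (complete control).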

sugar beet = experiment: Test B pre/postemergence sugar beet; assay type: in vivo, Beta vulgaris
Outline: as §1

rape = experiment: Test B pre/postemergence rape; assay type: in vivo, Brassica napus
Outline: as §1

[1] = Postemergence, Rate 62 g/ha, scale 0 to 10, 0 is no effect, 10 is complete control
[2] = Postemergence, Rate 125 g/ha, scale of 0 to 10 where 0 is no effect and 10 is complete control
[3] = Postemergence, Rate 250 g/ha, scale of 0 to 10, 0 is no effect, 10 is complete control
[4] = Preemergence, Rate 62 g/ha, scale 0 to 10 (0 no effect, 10 complete control)
[5] = Preemergence, Rate 125 g/ha, scale of 0 to 10 where 0 is no effect and 10 is complete control
[6] = Preemergence, Rate 250 g/ha, scale 0 to 10 (0 no effect, 10 complete control)
[7] = Preemergence, Rate 500 g/ha, scale of 0 to 10 where 0 is no effect and 10 is complete control
[8] = Postemergence, Rate 500 g/ha, scale of 0 to 10 where 0 is no effect and 10 is complete control
[9] = Preemergence, Rate 62 g/ha, scale of 0 to 10 where 0 is no effect and 10 is complete control
[10] = Rate 500 g/ha, Postemergence, scale 0 to 10, 0 is no effect, 10 is complete control

CC(C)N(C(=O)n1oc(=O)n(CC2CCCCO2)c1=O)c1ccc(F)cc1 (centres unmarked) [Compound 624]
10: Plant response rating, Redroot pigweed (pigweed; [7])
7: Plant response rating, Sugarbeets (sugar beet; [6]) | Plant response rating, Rape (rape; [7])
1: Sugarbeets plant response rating (sugar beet; [5]) | Plant response rating, Rape (rape; [6])
0: Plant response rating, Redroot pigweed (pigweed; [1]) | Plant response rating, Redroot pigweed (pigweed; [2]) | Redroot pigweed plant response rating (pigweed; [4]) | Redroot pigweed plant response rating (pigweed; [5]) | Plant response rating, Sugarbeets (sugar beet; [1]) | Plant response rating, Sugarbeets (sugar beet; [2]) | Sugarbeets plant response rating (sugar beet; [3]) | Sugarbeets plant response rating (sugar beet; [4]) | Plant response rating, Rape (rape; [1]) | Plant response rating, Rape (rape; [2]) | Rape plant response rating (rape; [3]) | Rape plant response rating (rape; [4]) | Rape plant response rating (rape; [5])
3: Plant response rating, Redroot pigweed (pigweed; [6]) | Plant response rating, Rape (rape; [8])
8: Plant response rating, Sugarbeets (sugar beet; [7])
2: Redroot pigweed plant response rating (pigweed; [3])

CCOC(Cn1c(=O)on(C(=O)N(c2ccccc2)C(C)C)c1=O)OCC [Compound 632]
10: Plant response rating, Redroot pigweed (pigweed; [7])
0: Plant response rating, Redroot pigweed (pigweed; [1]) | Plant response rating, Redroot pigweed (pigweed; [2]) | Redroot pigweed plant response rating (pigweed; [3]) | Redroot pigweed plant response rating (pigweed; [4]) | Redroot pigweed plant response rating (pigweed; [5]) | Plant response rating, Sugarbeets (sugar beet; [1]) | Plant response rating, Sugarbeets (sugar beet; [2]) | Sugarbeets plant response rating (sugar beet; [3]) | Sugarbeets plant response rating (sugar beet; [4]) | Sugarbeets plant response rating (sugar beet; [5]) | Plant response rating, Sugarbeets (sugar beet; [6]) | Plant response rating, Sugarbeets (sugar beet; [7]) | Plant response rating, Rape (rape; [1]) | Plant response rating, Rape (rape; [2]) | Rape plant response rating (rape; [3]) | Plant response rating, Rape (rape; [8]) | Rape plant response rating (rape; [4]) | Rape plant response rating (rape; [5]) | Plant response rating, Rape (rape; [6])
6: Plant response rating, Redroot pigweed (pigweed; [6])
4: Plant response rating, Rape (rape; [7])

CC(C)N(C(=O)n1oc(=O)n(CCC(=O)N(C)C)c1=O)c1ccccc1 [Compound 671]
3: Sugarbeets plant response rating (sugar beet; [10])
0: Plant response rating, Redroot pigweed (pigweed; [1]) | Redroot pigweed plant response rating (pigweed; [9]) | Plant response rating, Sugarbeets (sugar beet; [1]) | Sugarbeets plant response rating (sugar beet; [2]) | Plant response rating, Rape (rape; [1]) | Rape plant response rating (rape; [2]) | Rape plant response rating (rape; [9]) | Plant response rating, Rape (rape; [5]) | Plant response rating, Rape (rape; [6])
5: Redroot pigweed plant response rating (pigweed; [10])
8: Plant response rating, Rape (rape; [7])
2: Plant response rating, Redroot pigweed (pigweed; [5]) | Rape plant response rating (rape; [10])
9: Plant response rating, Sugarbeets (sugar beet; [5]) | Plant response rating, Sugarbeets (sugar beet; [6]) | Plant response rating, Sugarbeets (sugar beet; [7])
10: Plant response rating, Redroot pigweed (pigweed; [6]) | Plant response rating, Redroot pigweed (pigweed; [7])
1: Redroot pigweed plant response rating (pigweed; [2]) | Sugarbeets plant response rating (sugar beet; [9])
